Like-named read-outs stand apart in the source and are kept apart here.
Legend:
[1] = target: T1, Rat brain mu opioid receptor (Rattus norvegicus, UniProt P33535); assay: Rat brain mu opioid receptor binding assay ([3H]DAMGO)
T1 construct: from tissue; host or cells: forebrain of male Sprague Dawley rats
Description: • Procedure: Male, Sprague Dawley (150-250 g, VAF, Charles River, Kingston, N.Y.) are killed by CO2, and their brains removed and placed immediately in ice cold Tris HCl buffer (50 mM, pH 7.4). The forebrains are separated from the remainder of the brain by a coronal transection, beginning dorsally at the colliculi and passing ventrally through the midbrain-pontine junction. After dissection, the forebrains are homogenized in Tris buffer in a Teflon®-glass homogenizer. The homogenate is diluted to a concentration of 1 g of forebrain tissue per 80 mL Tris and centrifuged at 39,000×g for 10 min. The pellet is resuspended in the same volume of Tris buffer containing 5 mM MgCl2 with several brief pulses from a Polytron homogenizer. This particulate preparation is used for the mu-opioid binding assays. […] Kd and Ki values are calculated using GraphPad PRISM data analysis program.

[2] = target: T2, Rat brain delta opioid receptor (Rattus norvegicus, UniProt P33533); assay: Rat brain delta opioid receptor binding
T2 construct: from tissue; host or cells: rat brain
T2 sequence (P33533 whole entry): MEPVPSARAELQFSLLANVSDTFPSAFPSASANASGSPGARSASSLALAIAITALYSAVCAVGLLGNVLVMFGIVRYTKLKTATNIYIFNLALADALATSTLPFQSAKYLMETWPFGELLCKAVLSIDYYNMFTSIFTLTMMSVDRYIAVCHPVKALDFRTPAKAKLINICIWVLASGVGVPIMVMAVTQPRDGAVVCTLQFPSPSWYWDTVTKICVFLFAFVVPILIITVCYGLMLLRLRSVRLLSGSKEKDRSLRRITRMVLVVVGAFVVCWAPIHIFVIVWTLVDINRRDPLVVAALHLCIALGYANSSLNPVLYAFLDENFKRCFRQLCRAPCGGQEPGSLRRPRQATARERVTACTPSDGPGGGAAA

[3] = target: T3, human delta opioid receptor (Homo sapiens, UniProt P41143); assay: [35S]GTPγS binding assay in CHO-hδ cell membranes; type: biochemical
T3 construct: purchased Receptor Biology, Inc. (Baltimore, Md.); host or cells: CHO cells expressing the human delta receptor (membranes)
T3 sequence (P41143 whole entry): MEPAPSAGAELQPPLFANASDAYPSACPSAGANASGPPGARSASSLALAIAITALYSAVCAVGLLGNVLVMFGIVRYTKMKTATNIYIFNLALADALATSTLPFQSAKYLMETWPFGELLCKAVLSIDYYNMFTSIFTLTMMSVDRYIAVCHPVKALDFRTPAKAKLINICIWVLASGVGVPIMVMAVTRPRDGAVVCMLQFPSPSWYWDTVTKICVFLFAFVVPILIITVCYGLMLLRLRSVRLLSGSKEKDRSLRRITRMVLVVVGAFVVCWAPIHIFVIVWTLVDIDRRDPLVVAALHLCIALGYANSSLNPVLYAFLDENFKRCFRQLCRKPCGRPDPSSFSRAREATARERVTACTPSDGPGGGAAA
Description: CHO-hδ cell membranes are purchased from Receptor Biology, Inc. (Baltimore, Md.). 10 mg/ml of membrane protein is suspended in 10 mM TRIS-HC pH 7.2, 2 mM EDTA, 10% sucrose.
Membranes are maintained at 4-8° C. 1 ml of membranes is added into 15 ml cold binding assay buffer. The assay buffer contained 50 mM HEPES, pH 7.6, 5 mM MgCl2, 100 mM NaCl, 1 mM DTT and 1 mM EDTA. The membrane suspension is homogenized with a Polytron 2 times and centrifuged at 3000 rpm for 10 min. The supernatant is then centrifuged at 18,000 rpm for 20 min. The pellet is saved in a tube and 10 ml assay buffer is added into the tube. The pellet and buffer are mixed with a Polytron.
The pellet membranes (20 μg/ml) are preincubated with SPA (10 mg/ml) at 25° C. for 45 min in the assay buffer. The SPA (5 mg/ml) coupled with membranes (10 μg/ml) is then incubated with 0.5 nM [^35S]GTPgS in the same HEPES buffer containing 50 μM GDP in total volume of 200 μl. Increasing concentrations of receptor agonists are used to stimulate [^35S]GTPgS binding. The basal binding is tested in the absence of agonists and non-specific binding is tested in the presence of 10 μM unlabeled GTP S. The data are analyzed on a Top counter.

[4] = hDOR GTPγS EC50, human delta opioid receptor GTPγS functional assay
[5] = human delta opioid receptor GTPγS functional assay, read-out: hDOR GTPγS EC50

T1 sequence (P33535 whole entry): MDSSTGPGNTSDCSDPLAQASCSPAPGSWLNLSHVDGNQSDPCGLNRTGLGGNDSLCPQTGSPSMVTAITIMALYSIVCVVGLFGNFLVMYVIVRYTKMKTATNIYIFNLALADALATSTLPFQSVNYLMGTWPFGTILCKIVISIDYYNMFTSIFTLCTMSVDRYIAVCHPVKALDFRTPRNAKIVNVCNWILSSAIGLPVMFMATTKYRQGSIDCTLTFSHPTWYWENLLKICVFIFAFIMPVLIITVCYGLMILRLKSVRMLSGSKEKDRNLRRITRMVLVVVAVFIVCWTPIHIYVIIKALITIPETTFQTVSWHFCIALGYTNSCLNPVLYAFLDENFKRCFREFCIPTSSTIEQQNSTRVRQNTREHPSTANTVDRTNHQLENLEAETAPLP

| Compound | Ki ([1]; read-out: rMOR Ki) [nM] | Ki ([1]; rMOR Ki) [nM] | Ki ([2]; rDOR Ki) [nM] | also measured |
| --- | --- | --- | --- | --- |
| CCNC(=O)c1ccc2c(c1)OCc1ccccc1C2=C1CCN(C(=O)OCC(Cl)(Cl)Cl)CC1 [Compound 10, 4-(3-Ethylcarbamoyl-6H-dibenzo[b,e]oxepin-11-ylidene) -piperidine-1-carboxylic acid 2,2,2-trichloro-ethyl ester] | 92500 |  |  | Ki ([2]; read-out: rDOR Ki): > 100000 nM |
| CCNC(=O)c1ccc2c(c1)Sc1ccccc1C2=C1CC2CCC(C1)N2 [Compound 81] |  | 838 | 77.6 |  |
| CCNC(=O)c1ccc2c(c1)OCc1ccccc1C2=C1CCN(Cc2ccc(O)c(OC)c2)CC1 [Compound 18] | 2420 |  |  | Ki ([2]; read-out: rDOR Ki): 2000 nM |
| CCN(CC)C(=O)c1ccc2c(c1)Oc1ccccc1C2=C1CC2CCC(C1)N2CCOC [Compound 39, 9-[8-(2-Methoxy-ethyl)-8-aza-bicyclo[3.2.1]oct-3-ylidene]-9H-xanthene-3-carboxylic acid diethylamide] |  | 1680 | 8.43 | EC50 [3, 4]: 94.9 nM |
| CC(C)NC(=O)c1ccc2c(c1)Oc1ccccc1C2=C1CC2CCC(C1)N2 [Compound 58] |  | 2980 | 1160 |  |
| CCN(CC)C(=O)c1ccc2c(c1)Sc1ccccc1C2=C1CC2CCC(C1)N2Cc1c[nH]cn1 [Compound 74] |  | 848 | 3.79 |  |
| CCN(CC)C(=O)c1ccc2c(c1)Oc1ccc(Br)cc1C2=C1CC2CCC(C1)N2 [Compound 83] |  | 17700 | 139 |  |
| C#CCN1CCC(=C2c3ccccc3Oc3cc(C(=O)N(CC)CC)ccc32)CC1 [Compound 33, 9-(1-Prop-2-ynyl-piperidin-4-ylidene)-9H-xanthene-3-carboxylic acid diethylamide] |  | 5420 | 16.5 |  |
| CCNC(=O)c1ccc2c(c1)Oc1ccccc1C2=C1CCNCC1 [Compound 32, 9-Piperidin-4-ylidene-9H-xanthene-3-carboxylic acid ethylamide] | 1490 |  | 73 |  |
| CCN(CC)C(=O)c1ccc2c(c1)Sc1ccccc1C2=C1CC2CCC(C1)N2CCCSC [Compound 50] |  | > 100 | 10.2 | EC50 [3, 4]: 236 nM |
| CCN(CC)C(=O)c1ccc2c(c1)Oc1cc(OC)ccc1C2=C1CC2CCC(C1)N2 [Compound 70, 9-(8-Aza-bicyclo[3.2.1]oct-3-ylidene)-6-methoxy-9H-xanthene-3-carboxylic acid diethylamide] |  | 5740 | 2.31 |  |
| CCCNC(=O)c1ccc2c(c1)Oc1ccccc1C2=C1CC2CCC(C1)N2 [Compound 63] |  | 1730 | 108 |  |
| CCN(CC)C(=O)c1ccc2c(c1)Sc1ccccc1C2=C1CC2CCC(C1)N2CCO [Compound 51, 9-[8-(2Hydroxy-ethyl)-8-aza-bicyclo[3.2.1]oct-3-ylidene]-9H-thioxanthene-3-carboxylic acid diethylamide] |  | > 100 | 4.85 | EC50 [3, 4]: 62.8 nM |
| CCN(CC)C(=O)c1ccc2c(c1)Oc1ccc(-c3ccoc3)cc1C2=C1CC2CCC(C1)N2 [Compound 86] |  | 12500 | 1760 |  |
| CCN(CC)C(=O)c1ccc2c(c1)Oc1ccc(-c3ccncc3)cc1C2=C1CC2CCC(C1)N2 [Compound 85] |  | 10700 | 3000 |  |
| CCN(CC)C(=O)c1ccc2c(c1)OCc1ccccc1C2=C1CCN(C)CC1 [Compound 1, 11-(1-Methyl-piperidin-4-ylidene)-6,11-dihydro-dibenzo[b,e]oxepine-3-carboxylic acid diethylamide] | 6410 |  | 25.5 | EC50 [3, 5]: > 10000 nM; inhibition at 10 µM ([3]; read-out: inhibition of GTP binding induced with 1 uM DPDPE): 61% |
| CCNC(=O)c1ccc2c(c1)Oc1ccccc1C2=C1CC2CCC(C1)N2 (single isomer, unassigned) [Compound 56] | 712 |  |  | Ki ([2]; read-out: rDOR Ki): 161 nM |
| CCN(CC)C(=O)c1ccc2c(c1)Oc1ccc(NC(C)=O)cc1C2=C1CCNCC1 [Compound 34, 7-Acetylamino-9-piperidin-4-ylidene-9H-xanthene-3-carboxylic acid diethylamide] | > 10000 |  |  | Ki ([2]; read-out: rDOR Ki): > 10000 nM |
| CCNC(=O)c1ccc2c(c1)Sc1ccccc1C2=C1CC2CCC(C1)N2 [Compound 80] |  | 473 | 260 |  |
| CCN(CC)C(=O)c1ccc2c(c1)Oc1c(cccc1-c1ccccc1)C2=C1CC2CCC(C1)N2 [Compound 95, 9-(8-Aza-bicyclo[3.2.1]oct-3-ylidene)-5-phenyl-9H-xanthene-3-carboxylic acid diethylamide] |  | 6520 | 25.4 |  |
| CCN(CC)C(=O)c1ccc2c(c1)Oc1c(cccc1-c1cnc3ccccc3c1)C2=C1CC2CCC(C1)N2 [Compound 98] | 7360 |  | 24.5 |  |

| Compound | Ki ([1]; read-out: rMOR Ki) [nM] | Ki ([1]; rMOR Ki) [nM] | Ki ([2]; rDOR Ki) [nM] | also measured |
| --- | --- | --- | --- | --- |
| CCN(CC)C(=O)c1ccc2c(c1)Oc1ccc(-c3ccsc3)cc1C2=C1CC2CCC(C1)N2 [Compound 90] |  | 12400 | 836 |  |
| CCN(CC)C(=O)c1ccc2c(c1)Sc1ccccc1C2=C1CC2CCC(C1)N2CC1CC1 [Compound 49] |  | > 100 | 25 | EC50 [3, 4]: 252 nM |
| C=C(C)CN1CCC(=C2c3ccccc3COc3cc(C(=O)NCC)ccc32)CC1 [Compound 14] | 4820 |  |  | Ki ([2]; read-out: rDOR Ki): 432 nM |
| CNC(=O)c1ccc2c(c1)Oc1ccccc1C2=C1CC2CCC(C1)N2 [Compound 64] |  | 711 | 118 |  |
| C=CCN1CCC(=C2c3ccccc3COc3cc(C(=O)N(CC)CC)ccc32)CC1 [Compound 6, 11-(1-Allyl-piperidin-4-ylidene)-6,11-dihydro-dibenzo[b,e]oxepine-3-carboxylic acid diethylamide] | 7910 |  | 4.25 | EC50 [3, 5]: 128 nM |
| CCNC(=O)c1ccc2c(c1)OCc1ccccc1C2=C1CCN(CCc2ccccc2)CC1 [Compound 20] | 248 |  |  | Ki ([2]; read-out: rDOR Ki): 23300 nM |
| CCNC(=O)c1ccc2c(c1)OCc1ccccc1C2=C1CCNCC1 [Compound 11, 11-Piperidin-4-ylidene-6,11-dihydro-dibenzo[b,e]oxepine-3-carboxylic acid ethylamide] | 5660 |  |  | Ki ([2]; read-out: rDOR Ki): 317 nM |
| CCN(CC)C(=O)c1ccc2c(c1)Oc1ccc(NC(C)=O)cc1C2=C1CCN(C)CC1 [Compound 41, 7-Acetylamino-9-(1-methyl-piperidin-4-ylidene)-9H-xanthene-3-carboxylic acid diethylamide] | > 10000 |  |  | Ki ([2]; read-out: rDOR Ki): 5200 nM |
| CCNC(=O)c1ccc2c(c1)OCc1ccccc1C2=C1CCN(Cc2cccs2)CC1 [Compound 13] | 1900 |  |  | Ki ([2]; read-out: rDOR Ki): 143 nM |
| CCNC(=O)c1ccc2c(c1)Oc1ccccc1C2=C1CC2CCC(C1)N2CCc1ccccc1 [Compound 27] | 189 |  |  | Ki ([2]; read-out: rDOR Ki): 209 nM |
| CCN(CC)C(=O)c1ccc2c(c1)Oc1ccc(-c3ccc[nH]3)cc1C2=C1CC2CCC(C1)N2 [Compound 93] |  | > 10000 | > 10000 |  |
| CCN(CC)C(=O)c1ccc2c(c1)Oc1c(F)cccc1C2=C1CC2CCC(C1)N2 [Compound 102] |  | 2860 | 68 |  |
| CCCN(CCC)C(=O)c1ccc2c(c1)Oc1ccccc1C2=C1CC2CCC(C1)N2 [Compound 60] |  | 836 | 4.62 |  |
| CCNC(=O)c1ccc2c(c1)OCc1ccccc1C2=C1CCN(C)CC1 [Compound 9, 11-(1-Methyl-piperidin-4-ylidene)-6,11-dihydro-dibenzo[b,e]oxepine-3-carboxylic acid ethylamide] | > 100000 |  |  | Ki ([2]; read-out: rDOR Ki): > 100000 nM |
| CCN(CC)C(=O)c1ccc2c(c1)Oc1ccccc1C2C1CCN(C)CC1 (stereo not shown) [Compound 43, 9-(1-Methylpiperidin-4-yl)-9H-xanthene-3-carboxylic acid diethylamide] |  | > 10000 |  |  |
| CCN(CC)C(=O)c1ccc2c(c1)Oc1ccc(C)cc1C2=C1CC2CCC(C1)N2 [Compound 67] |  | 10900 | 54.4 |  |
| CC(C)CN(C)C(=O)c1ccc2c(c1)Oc1ccccc1C2=C1CC2CCC(C1)N2 [Compound 59] |  | 3340 | 10.6 |  |
| NC(=O)c1ccc2c(c1)Oc1ccccc1C2=C1CC2CCC(C1)N2 [Compound 65] |  | 858 | 197 |  |
| CN(C)C(=O)c1ccc2c(c1)Oc1ccccc1C2=C1CC2CCC(C1)N2 [Compound 57] |  | 5260 | 397 |  |
| C=CCN1CCC(=C2c3ccccc3COc3cc(C(=O)NCC)ccc32)CC1 [Compound 19, 11-(1-Allyl-piperidin-4-ylidene)-6,11-dihydro-dibenzo[b,e]oxepine-3-carboxylic acid ethylamide] | 2870 |  |  | Ki ([2]; read-out: rDOR Ki): 368 nM |
